# According to article PMC4965013, “Open Source Drug Discovery with the Malaria Box Compound Collection for Neglected Diseases and Beyond” (PLoS Pathogens, 2016):
# Assays:
# [1] = system: P. falciparum 3D7 trophozoites; assay: Metabolomic fingerprint profiling LC-MS; format: cell-based, Plasmodium falciparum; design: UDP-D-glucose / ADP-D-glucose: unit not given here
# P. falciparum = assay: EC50 listed in S2 Table Metabolomics (used to set the concentration tested); format: cell-based; conditions: Plasmodium falciparum; EC50 used for Factor_XEC50 in metabolomics; read-out: EC50_nM
# [2] = metabolite level change after treatment
smiles,measurement,setting,value
COc1ccc(NC(=O)C2c3ccccc3C(=O)N(CC(C)C)C2c2cccs2)cc1 (centres unmarked) [MMV000662],Acetyllysine,"[1]; S2 Table Metabolomics, metabolite Acetyllysine",-4.572
same,N-acetyl-L-ornithine,"[1]; S2 Table Metabolomics, metabolite N-acetyl-L-ornithine",-3.381
same,N-carbamoyl-L-aspartate,"[1]; S2 Table Metabolomics, metabolite N-carbamoyl-L-aspartate",-2.466
same,NADPH,"[1]; S2 Table Metabolomics, metabolite NADPH",2.406
same,dAMP,"[1]; S2 Table Metabolomics, metabolite dAMP",2.2996
same,dCMP,"[1]; S2 Table Metabolomics, metabolite dCMP",1.058
same,dTDP,"[1]; S2 Table Metabolomics, metabolite dTDP",1.444
same,dTMP,"[1]; S2 Table Metabolomics, metabolite dTMP",3.186
same,dTTP,"[1]; S2 Table Metabolomics, metabolite dTTP",1.443
same,dihydroorotate,"[1]; S2 Table Metabolomics, metabolite dihydroorotate",-3.591
same,orotate,"[1]; S2 Table Metabolomics, metabolite orotate",-0.05867
same,DLH,"[1]; S2 Table Metabolomics, peptide DLH",-6.2862
same,DLS/SDL/SID,"[1]; S2 Table Metabolomics, peptide DLS/SDL/SID",-4.745
same,PD,"[1]; S2 Table Metabolomics, peptide PD",-2.987
same,PEE,"[1]; S2 Table Metabolomics, peptide PEE",-3.507
same,PVNF,"[1]; S2 Table Metabolomics, peptide PVNF",-6.642
same,3-phosphoglycerate,"[1]; metabolite 3-phosphoglycerate, S2 Table Metabolomics",0.247
same,ADP-D-glucose,"[1]; metabolite ADP-D-glucose, S2 Table Metabolomics",-0.1909
same,ATP,"[1]; metabolite ATP, S2 Table Metabolomics",-1.375
same,CDP,"[1]; metabolite CDP, S2 Table Metabolomics, change in metabolite level after compound treatment",-0.7124
same,D-sedoheptulose-1/7-phosphate,"[1]; metabolite D-sedoheptulose-1/7-phosphate, S2 Table Metabolomics, change in metabolite level after compound treatment",-1.119
same,FAD,"[1]; metabolite FAD, S2 Table Metabolomics",-1.511
same,GMP,"[1]; metabolite GMP, S2 Table Metabolomics, change in metabolite level after compound treatment",-1.853
same,NAD+,"[1]; metabolite NAD+, S2 Table Metabolomics",-0.4043
same,NADP+,"[1]; metabolite NADP+, S2 Table Metabolomics",-0.01609
same,Octoluse Bisphosphate,"[1]; metabolite Octoluse Bisphosphate, S2 Table Metabolomics, change in metabolite level after compound treatment",-2.194
same,Pyroglutamic acid,"[1]; metabolite Pyroglutamic acid, S2 Table Metabolomics",0.3441
same,UDP-D-glucose,"[1]; metabolite UDP-D-glucose, S2 Table Metabolomics",-0.06213
same,UDP-D-glucuronate,"[1]; metabolite UDP-D-glucuronate, S2 Table Metabolomics",-0.01201
same,UDP-N-acetyl-glucosamine,"[1]; metabolite UDP-N-acetyl-glucosamine, S2 Table Metabolomics",0.08846
same,UDP,"[1]; metabolite UDP, S2 Table Metabolomics, change in metabolite level after compound treatment",-1.277
same,UMP,"[1]; metabolite UMP, S2 Table Metabolomics, change in metabolite level after compound treatment",-0.622
same,UTP,"[1]; metabolite UTP, S2 Table Metabolomics, change in metabolite level after compound treatment",-1.315
same,a-ketoglutarate,"[1]; metabolite a-ketoglutarate, S2 Table Metabolomics",0.4405
same,citrate/isocitrate,"[1]; metabolite citrate/isocitrate, S2 Table Metabolomics, change in metabolite level after compound treatment",0.05797
same,cytidine,"[1]; metabolite cytidine, S2 Table Metabolomics",0.7559
same,dATP,"[1]; metabolite dATP, S2 Table Metabolomics",0.06895
same,dGMP/AMP,"[1]; metabolite dGMP/AMP, S2 Table Metabolomics, change in metabolite level after compound treatment",-0.6193
same,fumarate,"[1]; metabolite fumarate, S2 Table Metabolomics, change in metabolite level after compound treatment",-0.1354
same,glucose-1/6-phosphate,"[1]; metabolite glucose-1/6-phosphate, S2 Table Metabolomics, change in metabolite level after compound treatment",-1.428
same,glycerate,"[1]; metabolite glycerate, S2 Table Metabolomics, change in metabolite level after compound treatment",-0.4765
same,guanine,"[1]; metabolite guanine, S2 Table Metabolomics, change in metabolite level after compound treatment",0.7318
same,guanosine,"[1]; metabolite guanosine, S2 Table Metabolomics, change in metabolite level after compound treatment",1.459
same,hypoxanthine,"[1]; metabolite hypoxanthine, S2 Table Metabolomics",0.3686
same,indole,"[1]; metabolite indole, S2 Table Metabolomics",0.3717
same,inosine,"[1]; metabolite inosine, S2 Table Metabolomics, change in metabolite level after compound treatment",0.5573
same,2_3-Diphosphoglyceric acid,[1]; [2],-1.11
same,4-phosphopantothenate,[1]; [2],-0.6744
same,6-phospho-D-gluconate,[1]; [2],-0.3651
same,FMN,[1]; [2],0.04988
same,IMP,[1]; [2],-0.0547
same,Pyrophosphate,[1]; [2],-1.578
same,Sedoheptoluse bisphosphate,[1]; [2],-1.096
same,cyclic-AMP,[1]; [2],-0.7789
same,glutathione disulfide,[1]; [2],-0.5026
same,lactate,[1]; [2],-0.6017
same,myo-inositol,[1]; [2],-0.9859
same,nicotinate,"[1]; metabolite nicotinate, S2 Table Metabolomics",1.185
same,ornithine,"[1]; metabolite ornithine, S2 Table Metabolomics",0.01334
same,phosphoenolpyruvate,"[1]; metabolite phosphoenolpyruvate, S2 Table Metabolomics",0.5172
same,pyruvate,"[1]; metabolite pyruvate, S2 Table Metabolomics, change in metabolite level after compound treatment",-1.672
same,ribose-phosphate,"[1]; metabolite ribose-phosphate, S2 Table Metabolomics",-0.9727
same,sarcosine/alanine,"[1]; metabolite sarcosine/alanine, S2 Table Metabolomics, change in metabolite level after compound treatment",-1.6779
same,sn-glycerol-3-phosphate,"[1]; metabolite sn-glycerol-3-phosphate, S2 Table Metabolomics",0.8186
same,succinate/methylmalonic acid,"[1]; metabolite succinate/methylmalonic acid, S2 Table Metabolomics, change in metabolite level after compound treatment",0.3034
same,uridine,"[1]; metabolite uridine, S2 Table Metabolomics, change in metabolite level after compound treatment",1.71
same,xanthosine,"[1]; metabolite xanthosine, S2 Table Metabolomics, change in metabolite level after compound treatment",-1.3795
same,EC50,P. falciparum,36.7 nM
